PMC5607274, “An iterative compound screening contest method for identifying target protein inhibitors using the tyrosine-protein kinase Yes” (Scientific Reports, 2017)

Molecular target: T1, human recombinant Yes [a.a. 2–543 (end)] (Homo sapiens, UniProt P07947)
T1 construct: human recombinant Yes [a.a; 2–543 (end)]; purchased BPS Bioscience 40488
Assay: ADP-Glo kinase assay, inhibition rates of Yes phosphorylation activity (first and second screening)
Assay type: biochemical
Settings: 10 μmol L−1 compound; for First screening IR (inhibition rate): mean of n = 4 wells; for Second screening IR (inhibition rate): dissolved from fresh powder, n = 4
Method in brief: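 ADP-Glo luminescence measured inhibition of human recombinant Yes (a.a. 2–543) phosphorylation activity. In the first screen, each compound ran in 4 wells and inhibition rates were averaged. The second screen retested hits as compounds dissolved from fresh powder.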

T1 sequence (P07947 2-543): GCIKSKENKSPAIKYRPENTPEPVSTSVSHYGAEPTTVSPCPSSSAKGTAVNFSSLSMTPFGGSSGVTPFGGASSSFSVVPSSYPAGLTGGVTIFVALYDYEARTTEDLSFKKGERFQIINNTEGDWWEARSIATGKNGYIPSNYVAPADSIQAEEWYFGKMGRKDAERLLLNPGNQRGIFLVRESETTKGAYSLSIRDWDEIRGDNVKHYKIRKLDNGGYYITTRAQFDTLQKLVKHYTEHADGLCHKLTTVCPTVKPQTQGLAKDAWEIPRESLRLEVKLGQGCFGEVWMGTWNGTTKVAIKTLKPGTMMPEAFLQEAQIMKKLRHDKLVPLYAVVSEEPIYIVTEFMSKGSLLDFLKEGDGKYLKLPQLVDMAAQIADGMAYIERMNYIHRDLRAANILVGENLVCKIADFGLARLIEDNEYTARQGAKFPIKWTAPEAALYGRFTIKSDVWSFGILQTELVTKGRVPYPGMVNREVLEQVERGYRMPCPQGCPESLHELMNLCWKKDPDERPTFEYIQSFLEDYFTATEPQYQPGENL

First screening IR (inhibition rate) [%] | Second screening IR (inhibition rate) [%] | Compound
5 |  | O=C(CSc1nnc(-c2cccnc2)n1C1CC1)c1ccc2c(c1)OCCCO2 [Compound Z98268667]
-4 |  | CCCn1c(=O)c2ccccc2n2c(=S)n(CN3CCC(C(=O)Nc4cc(C)ccn4)CC3)nc12 [Compound Z573186768]
-16 |  | COc1cccc(-c2cc(-c3ccccc3)c3cc(Br)ccc3n2)c1 [Compound Z1409331244]
0 |  | COc1ccccc1-c1nnc(SCC(=O)c2ccc(NC(C)=O)cc2F)n1-c1ccccc1 [Compound Z51187459]
4 |  | O=C(NCc1cnn(Cc2ccccc2)c1)Nc1ccncc1F [Compound Z1677761301]
36 |  | Cc1ccc(C)c(Cn2c(N3CCN(C/C=C/c4ccccc4)CC3)nc3c2c(=O)[nH]c(=O)n3C)c1 [Compound Z237733700]
-11 |  | Cc1ccc(O)c(-c2cc(-c3ccccc3)c3cc(Cl)ccc3n2)c1.Cl [Compound Z48950854]
2 |  | CCc1ccc(S(=O)(=O)N(CC)C2CCS(=O)(=O)C2)cc1 (stereo not drawn) [Compound Z65566827]
49 |  | CC(Sc1n[nH]c(-c2ccccc2)n1)C(=O)c1c[nH]c2ccccc12 (stereo not drawn) [Compound Z25398193]
23 |  | Cc1c(C(=O)Nc2cnn(C)c2)c(=O)[nH]c2ccccc12 [Compound Z1343740230]
7 |  | COC1CN(C(=O)c2cn(-c3ccccc3)nc2-c2cccnc2)C1 [Compound Z1203241726]
1 |  | Cc1nn(-c2ccccc2)c2sc(C(=O)NCc3ccccn3)cc12 [Compound Z30166588]
2 |  | CC1CN(CC2CCN(CC(=O)Nc3cc(Cl)ccc3Cl)CC2)CC(C)O1 (stereo not drawn) [Compound Z1033314424]
16 |  | COCCNc1ncnc2c1c(-c1ccccc1)cn2-c1ccc(OC)cc1 [Compound Z57455912]
5 |  | CCCN(S(=O)(=O)c1ccc(Cl)cc1)S(=O)(=O)c1ccc(C)cc1C [Compound Z45422032]
-8 |  | CC(c1ccccc1)N1C(=O)C(=O)N(CC(=O)c2cccn2C)C1=O (stereo not drawn) [Compound Z290228874]
5 |  | CC(Sc1nc2ncccn2n1)C(=O)Nc1ccc(Cl)cc1Cl (stereo not drawn) [Compound Z207321514]
3 |  | Cn1ncc2c(N3CCCC3CO)ncnc21 (stereo not drawn) [Compound Z817034034]
-5 |  | COc1ccc(-n2cc(-c3ccccc3)c3c(=O)[nH]cnc32)cc1 [Compound Z295463532]
62 | -11 | O=C(C1=C(O)C(=O)N(CCCn2ccnc2)C1c1cccc([N+](=O)[O-])c1)c1ccco1 (stereo not drawn) [Compound Z57237939]
4 |  | Cc1ccc(NC(=O)CSc2ncnc3ccccc23)cc1F [Compound Z19314901]
-20 |  | CN1/C(=C\C(=O)CN2C(=O)NC3(CCCc4sccc43)C2=O)C(C)(C)c2ccccc21 (stereo not drawn) [Compound Z54813762]
10 |  | CCCn1c(NC(=O)c2ccc3c(c2)S(=O)(=O)N(C(C)C)C3=O)nc2ccccc21 [Compound Z641940000]

First screening IR (inhibition rate) [%] | Second screening IR (inhibition rate) [%] | Compound
-3 |  | COc1ccc(-n2c(=O)c3ccccc3n3c(SCC(=O)NC(C)CCCC(C)C)nnc23)cc1 (stereo not drawn) [Compound Z97290306]
3 |  | Cl.Oc1ccccc1-c1cc(-c2ccccc2)c2cc(Cl)ccc2n1 [Compound Z48950876]
-1 |  | CC1(C(=O)N2CCCc3cc(S(=O)(=O)N4CCCC4)ccc32)Cc2ccccc2C(=O)O1 (stereo not drawn) [Compound Z131206652]
0 |  | C(=C1\CCCc2c1nc1ncnn1c2-c1ccccc1)/c1ccccc1 [Compound Z56784273]
1 |  | O=C(Nc1ccccc1)C1CCN(C(=O)C2CCOCC2)CC1 [Compound Z96031302]
8 |  | CCCCN(C)c1ccc(S(C)(=O)=O)cc1S(C)(=O)=O [Compound Z199538358]
-3 |  | CCn1c(-c2ccncc2)nc2c1c(=O)[nH]c(=O)n2Cc1ccccc1 [Compound Z50138431]
-6 |  | CSc1ccc(CSCc2nc(N)nc(Nc3ccc(F)cc3)n2)cc1 [Compound Z135100070]
26 |  | O=C(COC(=O)c1ccccc1OCc1ccccc1)Nc1ccc2c(c1)CCC2 [Compound Z18387854]
3 |  | Cc1cccc(/C=N/Nc2ncnc3sc(C)c(C)c23)c1 [Compound Z49890788]
-18 |  | COc1cccc(-c2cc(-c3ccc(C)cc3)c3ccccc3n2)c1 [Compound Z1664164245]
9 |  | Cn1c(O)c(N=NC(=O)c2ccc(COc3ccccc3-c3ccccc3)cc2)c2ccccc21 [Compound Z44853786]
3 |  | Cc1ccc(C(=O)Nc2cc(C(=O)N3CCCCC3)ccc2Cl)o1 [Compound Z1037939812]
4 |  | CN(C)c1nc(N)nc(CSCC(=O)Nc2cccc(Cl)c2Cl)n1 [Compound Z197452730]
-6 |  | COc1ccc2c(c1)CC/C(=C\c1cccc(C)c1)C2=O [Compound Z46584406]
3 |  | Cc1ccc(S(=O)(=O)N(C)C2(C)CCS(=O)(=O)C2)cc1 (stereo not drawn) [Compound Z131022526]
-8 |  | O=C(c1cccnc1N1CCCC1)N1CCN(C(=O)C2COc3ccccc3O2)CC1 (stereo not drawn) [Compound Z88468962]
17 |  | CN(C1CCS(=O)(=O)C1)S(=O)(=O)c1cc(Cl)cc(Cl)c1 (stereo not drawn) [Compound Z89320874]
-3 |  | Cc1cc(NC(=O)c2cc(-c3cccs3)on2)n(CCC#N)n1 [Compound Z908095506]
9 |  | Cc1ccc(-c2cc(-c3cccc(C)c3)nc3ccccc23)cc1 [Compound Z1844441892]
-5 |  | Cc1ccc(Nc2ccnc(Nc3ccc(C)cc3)n2)cc1 [Compound Z118512882]
38 |  | CCN1CCN(c2nc3ccccc3nc2C(C#N)C(=O)NCCc2ccc(OC)c(OC)c2)CC1 (stereo not drawn) [Compound Z56854281]
59 | 2 | CS(=O)(=O)c1ccccc1S(=O)(=O)Cl [Compound Z271096440]

First screening IR (inhibition rate) [%] | Second screening IR (inhibition rate) [%] | Compound
17 |  | CC(C)c1nnc(CNC(C)(C)c2ccc(Cl)cc2)o1 [Compound Z1120830695]
1 |  | Cc1nn(CC(C)C)c2sc(C(=O)N3c4ccccc4C[C@H]3C(N)=O)cc12 [Compound Z996487836]
-6 |  | Cc1cc(C)nc(N/N=C/c2ccc3ncccc3c2)n1 [Compound Z49539423]
-2 |  | COC(=O)c1c2c(nc3ccccc13)/C(=C\c1ccc3c(c1)OCO3)CCC2 [Compound Z19539846]
-4 |  | O=C(Nc1nc2c(s1)CN(Cc1ccccc1)CC2)c1cc2c(nc3sccn32)s1 [Compound Z68435865]
-7 |  | COc1ccc(/C=C2/CN(C)Cc3c2nc2ccccc2c3C(=O)O)cc1 [Compound Z46114702]
-2 |  | Cc1cn2c(/C=C/C(=O)c3ccc(OCC(=O)N(C)C)cc3)c(C)nc2s1 [Compound Z196370782]
3 |  | O=C(NCc1ccc(-n2ccnc2)nc1)c1ccc(-c2ccccc2)cc1 [Compound Z363639532]
-9 |  | O=C(N/N=C/c1ccco1)c1cc(-c2ccc(Br)s2)[nH]n1 [Compound Z57393573]
-4 |  | CCN(CC)C(=O)c1ccc(NS(=O)(=O)c2cc3c(cc2Cl)NC(=O)C3)cc1 [Compound Z1037385644]
-4 |  | Cc1nc(NCC2CCN(c3ccc(F)cc3)C2)c2cnn(C)c2n1 (stereo not drawn) [Compound Z815820560]
1 |  | CC(NC(=O)CCc1c[nH]c2ccccc12)c1cc2ccccc2o1 (stereo not drawn) [Compound Z91037735]
7 |  | CCn1cc(C(=O)c2cc(Cl)ccc2O)cc1-c1nc2ccccc2c(=O)[nH]1 [Compound Z135358570]
5 |  | O=C(CCc1ccc(-c2ccccc2F)o1)Nc1cccc(NC(=O)CCn2ccnc2)c1 [Compound Z431623528]
6 |  | Cc1ccc(C(CN2CCOCC2)NC(=O)Cn2cnc3sc(-c4ccccc4)cc3c2=O)cc1 (stereo not drawn) [Compound Z146866146]
4 |  | O=C(CCc1c[nH]c2ccccc12)Nc1ccc(F)c([N+](=O)[O-])c1 [Compound Z32407809]
4 |  | CN(C)S(=O)(=O)c1cccc(CS(=O)(=O)c2ccccn2)c1 [Compound Z432528000]
22 |  | Cn1cc(CNC2CCc3ncnn3C2)c(-c2ccncc2)n1 (stereo not drawn) [Compound Z1139562831]
3 |  | Cc1cc(C)n(CCCNC(=O)c2[nH]c3c(c2C)C(=O)CCC3)n1 [Compound Z51995634]
10 |  | CC1Cc2cc(C(=O)NC3(C)CCS(=O)(=O)C3)ccc2N1S(C)(=O)=O (stereo not drawn) [Compound Z89460412]
31 |  | Cc1ccc(Cn2c(=O)/c(=C/c3ccc(N4CCOCC4)c([N+](=O)[O-])c3)s/c2=C/C(=O)C(C)(C)C)cc1 [Compound Z48770507]
3 |  | C=CCN(Cc1nnc(-c2ccc(Cl)cc2)o1)S(=O)(=O)c1ccc(NC(C)=O)cc1 [Compound Z26082391]

Compound | First screening IR (inhibition rate) [%] | Second screening IR (inhibition rate) [%]
O=C(O)/C=C/c1ccc(NC(=O)CSC(c2ccccc2)c2ccccc2)cc1 [Compound Z224289160] | -8 | 
CN1CCC(N(C)c2ccc(NC(=O)c3c(O)cc(F)cc3F)cc2)CC1 [Compound Z910632940] | 6 | 
